Reference: patent publication US12195557B2, “Optimised compounds” (AXELIA ONCOLOGY PTY LTD, priority 2017, dated 2025)
Like-named read-outs stand apart in the source and are kept apart here. Residues, ends and D or L forms follow the SMILES beside them. *: point of attachment. X1 = CCCCCCCCCCCCCCCC(=O)OCC(C*)OC(=O)CCCCCCCCCCCCCCC

What was measured:
[1] = system: A/Udorn/307/72 (H3N2) influenza virus; assay type: in vivo, C57BL/6 mice; settings: n=5, day 5 (Example 4)
human TLR2 [2] = molecular target: T1, human TLR2 (Homo sapiens, UniProt O60603); assay: NF-kB activation in HEKBlue-hTLR2 cell line (SEAP reporter); assay type: cell-based
T1 construct: host or cells: HEK-Blue hTLR2 (HEK293-derived) cell line
Protocol: The potency of the compounds as activators of human and mouse TLR-2s was tested in an in vitro assay. The assay assesses NF-kB activation in the HEKBlue-mTLR-2 cell line. These cells have been stably transfected with mouse TLR-2 and express TLR-1 and TLR-6 endogenously at sufficient levels to allow for fully-functional TLR-1/2 and TLR-2/6 activation.
(§1) Toll-Like Receptor 2 (TLR2) stimulation is tested by assessing NF-kB activation in the HEKBlue-hTLR2 cell line. These cells have been stably transfected with human TLR2 and express TLR1 and TLR6 endogenously at a level sufficient to allow for fully-functional TLR1/2 and TLR2/6 activation. The activity of the test articles are tested on human TLR2 as potential agonists. The test articles are evaluated at seven concentrations and compared to control ligands. These steps are performed in triplicate.
as §1, with “stimulation was” for “stimulation is”, “assessing N-kB” for “assessing NF-kB”, “the HEK-Blue hTLR2” for “the HEKBlue-hTLR2”, “articles were” for “articles are”, “control ligands (see list below).” for “control ligands.”, “steps were” for “steps are”
The secreted embryonic alkaline phosphatase (SEAP) reporter is under the control of a promoter inducible by the transcription factor NF-κB. This reporter gene allows the monitoring of signaling through the TLR, based on the activation of NF-κB. In a 96-well plate (200 μL total volume) containing the appropriate cells (50,000-75,000 cells/well), 20 μL of the test article or the positive control ligand is added to the wells. The media added to the wells is designed for the detection of NF-κB induced SEAP expression. After a 20 hour incubation the optical density (OD) is read at 650 nm on a Molecular Devices SpectraMax 340PC absorbance detector.

human TLR2 [3] = molecular target: T1, human TLR2; assay: NF-κB luciferase reporter assay in HEK293T cells transfected with human TLR2 plasmid; assay type: cell-based; settings: dose range tested (12.2 pM to 3.125 pM), Example 9
Protocol: Comparison of the abilities of various compounds to stimulate luciferase activity in an NF-κB cell-based reporter system was determined. Compounds tested include INNA-006 (or compound (1)); INNA-013 (or compound (4)); INNA-014 (or compound (3)); INNA-015 (or compound (2)); INNA-010; INNA-011 (or compound (5)); INNA-012 (or compound (6)); and INNA-009. HEK293T cells, transiently co-transfected with a human TLR2 plasmid and a luciferase-NF-κB plasmid reporter system, were exposed to various dilutions of each compound. Successful receptor binding and subsequent signal transduction events were determined by measuring the luminescence due to luciferase activity (results shown in FIG. 11—left to right columns for each concentration are in the following order INNA-006 (or compound (1)); INNA-013 (or compound (4)); INNA-014 (or compound (3)); INNA-015 (or compound (2)); INNA-010; INNA-011 (or compound (5)); INNA-012 (or compound (6)); and INNA-009.
Comparison of the in vitro TLR2 agonistic activity of Pam3Cys-Ser-PEG3000 and INNA-006: HEK293T cells, transiently co-transfected with a human TLR2 plasmid and a luciferase-NF-κB plasmid reporter system, were exposed to various dilutions of INNA-006 or Pam3Cys-Ser-PEG3000. […]

Solubility in water = assay type: physicochemical
in vitro [4] = settings: rat, hepatocytes
[5] = human plasma, 37° C., 4 h time course
in vitro [6] = settings: dog, hepatocytes
in vitro [7] = settings: human, hepatocytes
[8] = dog plasma, 37° C., 4 h time course
in vitro [9] = settings: rat, plasma
in vitro [10] = settings: cynomolgus monkey, hepatocytes

T1 sequence (O60603 21-784): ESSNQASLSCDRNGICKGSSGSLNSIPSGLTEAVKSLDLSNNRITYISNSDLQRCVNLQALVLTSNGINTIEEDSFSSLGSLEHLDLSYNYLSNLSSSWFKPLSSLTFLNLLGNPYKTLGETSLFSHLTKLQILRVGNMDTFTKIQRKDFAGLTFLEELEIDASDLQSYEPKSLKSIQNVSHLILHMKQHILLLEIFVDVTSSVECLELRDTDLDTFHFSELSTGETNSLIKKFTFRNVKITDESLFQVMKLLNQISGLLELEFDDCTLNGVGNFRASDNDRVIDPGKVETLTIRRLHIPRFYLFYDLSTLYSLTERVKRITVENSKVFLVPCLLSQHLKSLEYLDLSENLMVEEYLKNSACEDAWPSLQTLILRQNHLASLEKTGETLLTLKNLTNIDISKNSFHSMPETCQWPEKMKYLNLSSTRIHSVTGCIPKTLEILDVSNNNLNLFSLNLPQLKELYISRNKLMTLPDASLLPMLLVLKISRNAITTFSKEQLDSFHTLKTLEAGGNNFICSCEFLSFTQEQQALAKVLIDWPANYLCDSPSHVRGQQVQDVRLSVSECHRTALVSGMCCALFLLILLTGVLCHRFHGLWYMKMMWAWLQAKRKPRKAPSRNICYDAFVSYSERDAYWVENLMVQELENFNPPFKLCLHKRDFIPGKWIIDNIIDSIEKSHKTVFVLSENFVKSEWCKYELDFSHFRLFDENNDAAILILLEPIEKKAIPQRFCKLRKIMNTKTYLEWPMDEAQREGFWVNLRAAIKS
T1 sequence (Q9Y2C9 32-796 partner): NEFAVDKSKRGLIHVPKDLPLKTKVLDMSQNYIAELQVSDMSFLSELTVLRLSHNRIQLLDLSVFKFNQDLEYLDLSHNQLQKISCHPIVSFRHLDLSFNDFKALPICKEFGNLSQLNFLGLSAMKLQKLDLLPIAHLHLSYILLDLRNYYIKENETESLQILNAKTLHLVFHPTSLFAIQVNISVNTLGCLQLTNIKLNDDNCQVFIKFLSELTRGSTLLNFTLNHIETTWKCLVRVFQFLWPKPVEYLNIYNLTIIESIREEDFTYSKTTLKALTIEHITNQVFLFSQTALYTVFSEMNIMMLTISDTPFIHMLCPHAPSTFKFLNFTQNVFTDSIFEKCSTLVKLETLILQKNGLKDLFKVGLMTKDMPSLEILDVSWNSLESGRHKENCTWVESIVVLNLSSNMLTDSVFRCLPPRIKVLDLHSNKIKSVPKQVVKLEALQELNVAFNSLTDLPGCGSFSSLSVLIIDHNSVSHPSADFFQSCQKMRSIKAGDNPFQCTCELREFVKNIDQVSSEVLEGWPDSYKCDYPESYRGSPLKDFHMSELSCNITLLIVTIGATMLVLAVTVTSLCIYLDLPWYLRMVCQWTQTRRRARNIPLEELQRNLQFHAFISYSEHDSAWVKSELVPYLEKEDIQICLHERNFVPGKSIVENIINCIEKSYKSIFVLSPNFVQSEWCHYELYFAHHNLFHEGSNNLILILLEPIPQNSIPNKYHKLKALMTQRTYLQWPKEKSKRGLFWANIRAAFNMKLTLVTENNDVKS

Q: Which “progression of influenza virus to the lungs (lung viral titre)” value (from here on “progression of influenza virus”) ([1]; 0.005 nmoles intranasal 1 day prior to 500 pfu Udorn challenge) does the source give for `CCCCCCCCCCCCCCCC(=O)OCC(CSCC(N)C(=O)NC(CO)C(=O)NC(CCCCN)C(=O)NC(CCCCN)C(=O)NC(CCCCN)C(=O)NC(CCCCN)C(=O)O)OC(=O)CCCCCCCCCCCCCCC` (stereo not drawn) [INNA-005, Pam2Cys—Ser—Lys—Lys—Lys—Lys, reference compound] (H-C(X1)SKKKK-OH; configuration not given here) here?
A: partial inhibition

Q: What about the “progression of influenza virus” value ([1]; 0.1 nmoles intranasal 1 day prior to 500 pfu Udorn challenge) of the same molecule?
A: partial inhibition

Q: What about the “progression of influenza virus” value ([1]; 5 nmoles intranasal 1 day prior to 500 pfu Udorn challenge) of the same molecule?
A: partial inhibition

Q: What about the “TLR2 activation, potency in words” value (human TLR2 [2]; Example 2) of the same molecule?
A: activated human TLR2

Q: And the EC50 (human TLR2 [2]; agonist activity against Human TLR-2 in vitro)?
A: 3.7 pM

Q: For Pam3Cys-Ser-PEG3000, which “ability to signal NF-κB compared with INNA-006” value (human TLR2 [3]) is on record?
A: inferior to INNA-006

Q: What about the solubility in water (Solubility in water) of the same molecule?
A: readily soluble in water

Q: For `CCCCCCCCCCCCCCCC(=O)OCC(CSC[C@H](N)C(=O)N[C@@H](CO)C(=O)NCCOCCOCCOCCOCCOCCOCCOCCOCCOCCOCCOCCOCCOCCOCCOCCOCCOCCOCCOCCOCCOCCOCCOCCOCCOCCOCCOCCOCCC(=O)NCC(N)=O)OC(=O)CCCCCCCCCCCCCCC` (stereo partly drawn) [INNA-011], which half-life at 0.5 μM (in vitro [4]) is on record?
A: > 6.25 h

Q: What about the hepatocyte CLint at 0.5 μM (in vitro [4]) of the same molecule?
A: ≤ 2 µL/min/1e6 cells

Q: What about the plasma half-life [5] of the same molecule?
A: could not be calculated due to insufficient degradation

Q: What about the half-life at 0.5 μM (in vitro [6]) of the same molecule?
A: 4.73 h

Q: What about the hepatocyte CLint at 0.5 μM (in vitro [6]) of the same molecule?
A: ≤ 2 µL/min/1e6 cells

Q: And the half-life at 0.5 μM (in vitro [7])?
A: 5.47 h

Q: And the hepatocyte CLint at 0.5 μM (in vitro [7])?
A: ≤ 2 µL/min/1e6 cells

Q: And the plasma half-life [8]?
A: could not be calculated due to insufficient degradation

Q: And the half-life (in vitro [9])?
A: 5.9 h

Q: What about the half-life at 0.5 μM (in vitro [10]) of the same molecule?
A: 2.88 h

Q: What about the hepatocyte CLint at 0.5 μM (in vitro [10]) of the same molecule?
A: ≤ 2 µL/min/1e6 cells
